# Reference: paper PMC6378327, “Modes of Accessing Bicarbonate for the Regulation of Membrane Guanylate Cyclase (ROS-GC) in Retinal Rods and Cones” (eNeuro, 2019)
# Target: T1, ROS-GC1 (Bos taurus, UniProt P55203)
# T1 construct: gene GUCY2D; core catalytic domain, G817-Y965 (numbering for mature protein), homodimer
# Assay: activation of purified recombinant core catalytic domain by […] bicarbonate, cGMP radioimmunoassay
# Format: biochemical
# Conditions: 30000 µM
# T1 sequence (P55203 873-1021): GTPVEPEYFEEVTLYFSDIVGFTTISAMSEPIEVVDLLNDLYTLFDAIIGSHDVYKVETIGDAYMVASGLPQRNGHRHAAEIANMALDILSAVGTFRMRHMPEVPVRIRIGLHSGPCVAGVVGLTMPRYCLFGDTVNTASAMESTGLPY
smiles,measurement,value
O=C(O)O [bicarbonate],"activation of purified recombinant core catalytic domain by 30 mM bicarbonate, c",3.4 fold activity at 30 mM
